Patent US20230236172A1, “T Cells That Respond To Patient Neoepitopes” (NantCell, Inc., priority 2020, published 2023)

Test system: T cells generated with E. coli expressed polytope
Experiment: ELISPOT with in vitro translated epitope peptides on the polytope-generated T cell line (FIG. 10)
Format: cell-based, human
Procedure: An exemplary synthetic DNA template for creating neoepitope peptides in vitro is depicted below, and the corresponding sequences are shown in SEQ ID NO:18, SEQ ID NO:19, SEQ ID NO:20, and SEQ ID NO:21 respectively.
One template strand oligo per epitope plus sense strand universal promoter oligo was used. […] Rather the reaction required simply adding annealed oligos to expression mix, and the mixture was allowed to react for 2 hours.

Sequence	Recognition of epitope by T cells in the T cell line
FMRPHERNGFTVLCPKNMIIKPGKI [E6]	recognized by T cells
WQAGILARNLVPMVATVQGQNLKYQ (IVT&T peptide9)	recognized by T cells
